Source: patent US20260315604A1, “OTUB1 Small-Molecule Binders and OTUB1-recruiting Deubiquitinase-targeting Chimeras (DUBTACs)” (ICAHN SCHOOL OF MEDICINE AT MOUNT SINAI, priority 2023, published 2026)

Target: T1, Human OTUB1 wild-type (Homo sapiens, UniProt Q96FW1)
T1 construct: His tag (N); made in house; host or cells: E. coli BL21-CodonPlus (DE3)-RIPIL
Test: Covalent modification of OTUB1 (adduct formation), mass spectrometry-based assay (OTUB1 covalent binders; selected CFTR or cGAS based bivalent compounds)
Assay type: binding
Settings: covalent adduct formation with OTUB1 protein
Description: OTUB1 covalent binders were tested for their ability to form the covalent adduct with OTUB1 protein using a mass-spectrometry based assay.
Example 389. Assessment of the Covalent Modification of OTUB1 Protein by Selected OTUB1 Covalent Binders Using a Mass Spectrometry-Based Assay (FIG. 1)
OTUB1 protein (10 μM) was incubated with selecting compounds (2500 μM) at RT for 1 h. The adduct was qualified by mass spectrometry-based assays.
Example 398. Assessment of the Covalent Modification of OTUB1 Protein by Selected CFTR Based Bivalent Compounds Using Mass Spectrometry-Based Assay (FIG. 10)
OTUB1 protein (10 μM) was incubated with selecting bivalent compounds (2500 μM) at RT for 1 h. The adduct was qualified by mass spectrometry-based assays.
Human OTUB1 wild-type (NM_017670.3) and C23S mutation genes were optimized based on the codon preference of E. coli, synthesized and cloned into pET15b vector with a N-terminal His tag by Genscript, respectively. The plasmid was transferred to BL21-CodonPlus (DE3)-RIPIL Competent Cell (230280, Agilent Technologies) and the recombinant protein was induced expressed by 0.5 mM IPTG at 16° C. with shaking 200 rpm for 18 h. Induced cells were harvested by centrifugation and resuspended in cold lysis buffer (50 mM Tris-H—Cl pH 7.5, 150 mM NaCl, 25 mM imidazole pH 7.5, 0.01% IGEPAL, 5% Glycerol) in the presence of Pierce Protease Inhibitor tablets (PIA32963, Fisher Scientific) and 2 mM TCEP pH 7.5.
The cells were lysed by sonication, clarified by centrifugation, and the filtered supernatant loaded onto a 5 ml HisTrap HP affinity column (17524802, Cytiva) in AKTA system. The His-recombinant protein bound to column was washed using buffer A (50 mM Tris-HCl pH 7.5, 150 mM NaCl, 25 mM imidazole pH 7.5, 0.01% IGEPAL, 5% Glycerol) and eluted with buffer B (50 mM Tris-HCl pH 7.5, 150 mM NaCl, 250 mM imidazole pH 7.5, 0.01% IGEPAL, 5% Glycerol). The eluted fractions containing OTUB1 protein were concentrated and subjected to size exclusion chromatography using a 320 mL HiLoad 26/600 Superdex 200 pg column (28989336, Cytiva) under the buffer condition ([…] Tris-HCl pH 7.5, 150 mM NaCl, and 2 mM TCEP pH 7.5). The eluted fractions containing OTUB1 protein were concentrated, divided into aliquots and stored at −80° C. freezer for further usage.
Quality control of the OTUB1 proteins was performed by SDS-PAGE, Nanodrop and mass spectrometry.
Mass Spectrometry-Based Analysis of OTUB1-Covalent Ligand Adducts
To screen the covalent ligands, recombinant OTUB1 protein (10 μM) was respectively incubated with DMSO, EN523 or seven novel ligands (2500 μM) in reaction buffer (50 mM Tris-HCl pH 7.5, 150 mM NaCl, and 0.5 mM TCEP pH 7.5) for 1 h at room temperature.
Then, the total 500 μL reaction solution was exchanged and concentrated to 50 μL 50 mM ammonium bicarbonate with a 10 kDa MWCO centrifugal filter unit (UFC901024, Millipore) and diluted in MS buffer (30% ACN, 0.2% FA) to a final concentration of […]. Mass spectrometry detection was performed by an Agilent LC/MSD Time-Of-Flight (TOF) mass spectrometer (Agilent Technologies) equipped with an electrospray ion source. The data was analyzed by TOF Protein Confirmation Software. All experiments were performed in duplicate.

T1 sequence (Q96FW1 whole entry): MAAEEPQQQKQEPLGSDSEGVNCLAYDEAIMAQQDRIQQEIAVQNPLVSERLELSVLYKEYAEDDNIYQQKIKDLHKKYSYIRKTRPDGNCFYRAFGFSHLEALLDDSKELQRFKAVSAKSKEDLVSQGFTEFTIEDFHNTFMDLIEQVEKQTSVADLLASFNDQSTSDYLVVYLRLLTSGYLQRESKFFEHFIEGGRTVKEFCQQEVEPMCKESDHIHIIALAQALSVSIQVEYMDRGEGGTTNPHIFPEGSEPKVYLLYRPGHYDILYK

Row | Compound | % of OTUB1 modified [%]
1 | Cc1ccc(N(C)C(=O)CCN(C)C(=O)/C=C/CN(C)C)s1 [XS175-160, (E)-4-(dimethylamino)-N-methyl-N-(3-(methyl(5-methylthiophen-2-yl)amino)-3-oxopropyl)but-2-enamide] | <1
2 | Cc1csc(NC(=O)C2CCN(C(=O)/C=C/CN(C)C)CC2)c1 [XS175-173, (E)-1-(4-(dimethylamino)but-2-enoyl)-N-(4-methylthiophen-2-yl)piperidine-4-carboxamide] | 3
3 | CC(C)c1ccc(NC(=O)C2CCN(C(=O)/C=C/CN(C)C)CC2)s1 [XS175-178, (E)-1-(4-(dimethylamino)but-2-enoyl)-N-(5-isopropylthiophen-2-yl)piperidine-4-carboxamide] | 3
4 | CC(C)c1ccc(NC(=O)C2CCN(C(=O)/C=C/CN(C)C)C2)s1 (stereo not drawn) [XS175-180, (E)-1-(4-(dimethylamino)but-2-enoyl)-N-(5-isopropylthiophen-2-yl)pyrrolidine-3-carboxamide] | 8
5 | CN(C)C/C=C/C(=O)N1CCN(c2cc3c(s2)CCCC3)C(=O)C1 [XS175-186, (E)-4-(4-(dimethylamino)but-2-enoyl)-1-(4,5,6,7-tetrahydrobenzo[b]thiophen-2-yl)piperazin-2-one] | 100
6 | Cc1ccc(NC(=O)C2CCN(C(=O)CCl)CC2)s1 [XS185-4, 1-(2-chloroacetyl)-N-(5-methylthiophen-2-yl)piperidine-4-carboxamide] | 100
7 | Cc1ccc(NC(=O)C2CC3(C2)CN(C(=O)CCl)C3)s1 [XS185-5, 2-(2-chloroacetyl)-N-(5-methylthiophen-2-yl)-2-azaspiro[3.3]heptane-6-carboxamide] | 100
8 | CC(C)c1ccc(NC(=O)C2CCN(C(=O)CCl)CC2)s1 [XS185-6, 1-(2-chloroacetyl)-N-(5-isopropylthiophen-2-yl)piperidine-4-carboxamide] | 100
9 | CN(C)C/C=C/C(=O)N1CCN(c2c[nH]c3ccccc23)C(=O)C1 [XS185-43, (E)-4-(4-(dimethylamino)but-2-enoyl)-1-(1H-indol-3-yl)piperazin-2-one] | 58
10 | Cc1ccc(C(=O)N2CCN(C(=O)/C=C/CN(C)C)CC2)s1 [XS185-64, (E)-4-(dimethylamino)-1-(4-(5-methylthiophene-2-carbonyl)piperazin-1-yl)but-2-en-1-one] | 20
11 | Cc1ccc(C(=O)N2CCC(NC(=O)/C=C/CN(C)C)CC2)s1 [XS185-65, (E)-4-(dimethylamino)-N-(1-(5-methylthiophene-2-carbonyl)piperidin-4-yl)but-2-enamide] | 1
12 | Cc1ccc(C(=O)N2CC3(CCN(C(=O)/C=C/CN(C)C)CC3)C2)s1 [XS185-66, (E)-4-(dimethylamino)-1-(2-(5-methylthiophene-2-carbonyl)-2,7-diazaspiro[3.5]nonan-7-yl)but-2-en-1-one] | 20
13 | Cc1ccc(C(=O)N2C3CC2CN(C(=O)/C=C/CN(C)C)C3)s1 [XS185-67, (E)-4-(dimethylamino)-1-(6-(5-methylthiophene-2-carbonyl)-3,6-diazabicyclo[3.1.1]heptan-3-yl)but-2-en-1-one] | 15
14 | Cc1ccc(C(=O)N2CC3CCC(C2)N3C(=O)/C=C/CN(C)C)s1 [XS185-70, (E)-4-(dimethylamino)-1-(3-(5-methylthiophene-2-carbonyl)-3,8-diazabicyclo[3.2.1]octan-8-yl)but-2-en-1-one] | 20
15 | Cc1ccc(C(=O)N2C3CCC2CN(C(=O)/C=C/CN(C)C)C3)s1 [XS185-71, (E)-4-(dimethylamino)-1-(8-(5-methylthiophene-2-carbonyl)-3,8-diazabicyclo[3.2.1]octan-3-yl)but-2-en-1-one] | 15
16 | Cc1ccc(C(=O)N2CC3CC(C2)N3C(=O)/C=C/CN(C)C)s1 [XS185-72, (E)-4-(dimethylamino)-1-(3-(5-methylthiophene-2-carbonyl)-3,6-diazabicyclo[3.1.1]heptan-6-yl)but-2-en-1-one] | 90
17 | Cc1ccc(N2CC3CCC(C2=O)N3C(=O)/C=C/CN(C)C)s1 (stereo not drawn) [XS185-75, (E)-8-(4-(dimethylamino)but-2-enoyl)-3-(5-methylthiophen-2-yl)-3,8-diazabicyclo[3.2.1]octan-2-one] | 98
18 | C=C(C#N)CN1CCN(c2ccc(C)s2)C(=O)C1 [XS185-87, 2-((4-(5-methylthiophen-2-yl)-3-oxopiperazin-1-yl)methyl)acrylonitrile] | 1
19 | Cc1ccc(C(=O)N2CCC3(CC2)CN(C(=O)/C=C/CN(C)C)C3)s1 [XS185-96, (E)-4-(dimethylamino)-1-(7-(5-methylthiophene-2-carbonyl)-2,7-diazaspiro[3.5]nonan-2-yl)but-2-en-1-one] | 10

Continued, values first:

Row | % of OTUB1 modified [%] | Compound
20 | 18 | Cc1ccc(NC(=O)C2CC3(C2)CN(C(=O)/C=C/CN(C)C)C3)s1 [XS175-149, (E)-2-(4-(dimethylamino)but-2-enoyl)-N-(5-methylthiophen-2-yl)-2-azaspiro[3.3]heptane-6-carboxamide]
21 | 45 | CN(C)C/C=C/C(=O)N1CCN(c2ccc(-c3ccccc3)s2)C(=O)C1 [XS175-158, (E)-4-(4-(dimethylamino)but-2-enoyl)-1-(5-phenylthiophen-2-yl)piperazin-2-one]
22 | 100 | CN(C)C/C=C/C(=O)N1CCN(c2cc3ccccc3s2)C(=O)C1 [XS175-179, (E)-1-(benzo[b]thiophen-2-yl)-4-(4-(dimethylamino)but-2-enoyl)piperazin-2-one]
23 | 35 | Cc1ccc(N2CC3(CN(C(=O)/C=C/CN(C)C)C3)C2)s1 [XS185-3, (E)-4-(dimethylamino)-1-(6-(5-methylthiophen-2-yl)-2,6-diazaspiro[3.3]heptan-2-yl)but-2-en-1-one]
24 | 1 | CN(C)C/C=C/C(=O)N1CC2(C1)CN(c1cc3ccccc3s1)C2 [XS185-46, (E)-1-(6-(benzo[b]thiophen-2-yl)-2,6-diazaspiro[3.3]heptan-2-yl)-4-(dimethylamino)but-2-en-1-one]
25 | 30 | Cc1ccc(C(=O)N2CC3(CN(C(=O)/C=C/CN(C)C)C3)C2)s1 [XS185-69, (E)-4-(dimethylamino)-1-(6-(5-methylthiophene-2-carbonyl)-2,6-diazaspiro[3.3]heptan-2-yl)but-2-en-1-one]
26 | 40 | CN(C)C/C=C/C(=O)N1CCN(c2cc3ccccc3o2)C(=O)C1 [XS185-78, (E)-1-(benzofuran-2-yl)-4-(4-(dimethylamino)but-2-enoyl)piperazin-2-one]
27 | 80 | CN(C)C/C=C/C(=O)N1CCN(c2csc3ccccc23)C(=O)C1 [XS185-86, (E)-1-(benzo[b]thiophen-3-yl)-4-(4-(dimethylamino)but-2-enoyl)piperazin-2-one]
28 | 60 | CN(C)C/C=C/C(=O)N1CC(C(=O)Nc2cc3ccccc3s2)C1 [XS185-90, (E)-N-(benzo[b]thiophen-2-yl)-1-(4-(dimethylamino)but-2-enoyl)azetidine-3-carboxamide]
29 | 25 | CN(C)C/C=C/C(=O)N1CC2(CC(C(=O)Nc3cc4ccccc4s3)C2)C1 [XS185-91, (E)-N-(benzo[b]thiophen-2-yl)-2-(4-(dimethylamino)but-2-enoyl)-2-azaspiro[3.3]heptane-6-carboxamide]
30 | 25 | Cc1ccc(C(=O)N2CCC3(CN(C(=O)/C=C/CN(C)C)C3)C2)s1 [XS185-97, (E)-4-(dimethylamino)-1-(6-(5-methylthiophene-2-carbonyl)-2,6-diazaspiro[3.4]octan-2-yl)but-2-en-1-one]
